In patent publication US20240325398A1, “COMBINATION THERAPIES” (Infinity Pharmaceuticals, Inc., priority 2014, published 2024):

How the values were obtained:
HH = test: Combination study, ATPLite 72 h, dose matrix (Synergy Score, CI50); type: cell-based; details: combination with Compound 1
Protocol: The method is described as follows.
Additive effect is CI=1.0. […] Antagonistic effect is CI>1.0.
The Synergy Score is calculated as: […]

HBL-1 = test: as above; details: combination with Compound 1, 72 h
OCI-Ly3 = test: as above; details: combination with Compound 1; OCI-Ly3; 72 h
U-2932 = test: as above; details: combination with Compound 1, 72 h
TMD8 = test: as above; details: combination with Compound 1; TMD8; 72 h
OCI-Ly7 = test: as above; details: combination with Compound 1, 72 h
Protocol: (§1) Cells are thawed from a liquid nitrogen preserved state. Once cells have been expanded and divide at their expected doubling times, screening begins. Cells are seeded in growth media in either black 1536-well or 384-well tissue culture treated plates. Cells are then equilibrated in assay plates via centrifugation and placed in incubators attached to the Dosing Modules at 37° C. for 24 hours before treatment. […] These Tzero (To) plates are read using ultra-sensitive luminescence on Envision plate readers (Perkin Elmer). Treated assay plates are incubated with compound for 72 hours. After 72 hours, plates are developed for endpoint analysis using ATPLite. All data points are collected via automated processes, quality controlled and analyzed using Zalicus software.
The measure of effect in the experiment can be the inhibition of cellular response relative to the untreated level (vehicle alone). […] The inhibition ranges from 0% at the untreated level to 100% when T=0. Inhibition levels are negative for agents that actually increase levels.
(§2) Growth Inhibition (GI) is used as a measure of cell viability. […] A GI reading of 100% represents complete growth inhibition—T72 compound-treated and T0 vehicle signals are matched. […] A GI reading of 200% represents complete death of all cells in the culture well. Compounds reaching an activity plateau of GI 200% are considered cytotoxic. GI is calculated by applying the following test and equation:
(§3) Combination analysis data were collected in a 6×6 dose matrix. Synergy is calculated by comparing a combination's response to those of its single compound, against the drug-with-itself dose-additive reference model. Deviations from dose additivity may be assessed visually on an isobologram or numerically with a Combination Index (CI). […] Additive effect is CI=1.0. […] Antagonistic effect is CI>1.0.
(§4) To measure combination effects in excess of Loewe additivity, a scalar measure to characterize the strength of synergistic interaction termed the Synergy Score is devised. The Synergy Score is calculated as:
(§5) The fractional inhibition for each component agent and combination point in the matrix is calculated relative to the median of all vehicle-treated control wells. The Synergy Score equation integrates the experimentally-observed activity volume at each point in the matrix in excess of a model surface numerically derived from the activity of the component agents using the Loewe model for additivity. Additional terms in the Synergy Score equation (above) are used to normalize for various dilution factors used for individual agents and to allow for comparison of synergy scores across an entire experiment. The inclusion of positive inhibition gating or an Idata multiplier removes noise near the zero effect level, and biases results for synergistic interactions at that occur at high activity levels.
Loewe Volume (Loewe Vol) is used to assess the overall magnitude of the combination interaction in excess of the Loewe additivity model. Loewe Volume is particularly useful when distinguishing synergistic increases in a phenotypic activity (positive Loewe Volume) versus synergistic antagonisms (negative Loewe Volume). […] This model defines additivity as a non-synergistic combination interaction where the combination dose matrix surface should be indistinguishable from either drug crossed with itself. The calculation for Loewe additivity is:

SU-DHL-4-epst = test: as above; details: combination with Compound 1, 72 h
DOHH-2 = test: as above; details: combination with Compound 1, 72 h
Farage = test: as above; details: combination with Compound 1; Farage; 72 h
Protocol: as §1
(§6) where T is treated cell count and V is untreated (vehicle) cell count (at 72 hours). I ranges from 0% (when T=V) to 100% (when T=0). […] The measure of effect in the experiment can be the inhibition of cellular response relative to the untreated level (vehicle alone). […] The inhibition ranges from 0% at the untreated level to 100% when T=0. Inhibition levels are negative for agents that actually increase levels. Other effect measures, such as an activity ratio r=T/V may be more appropriate for some assays. When activity ratios (e.g, fold increase over stimulated control) are being used, the effect can be measured using an induction 1=ln(T/V). With this definition, all effect expressions are the same as for inhibition.
as §2, §3
The isobologram was drawn by identifying the locus of concentrations that correspond to crossing the indicated inhibition level. This is done by finding the crossing point for each single agent concentration in a dose matrix across the concentrations of the other single agent. Practically, each vertical concentration CY is held fixed while a bisection algorithm is used to identify the horizontal concentration CX in combination with that vertical dose that gives the chosen effect level in the response surface Z(CX,CY). These concentrations are then connected by linear interpolation to generate the isobologram display. For synergistic interactions, the isobologram contour fall below the additivity threshold and approaches the origin, and an antagonistic interaction would lie above the additivity threshold. The error bars represent the uncertainty arising from the individual data points used to generate the isobologram. The uncertainty for each crossing point is estimated from the response errors using bisection to find the concentrations where Z−αZ(CX,CY) and Z+σZ(CX,CY) cross Icut, where αZ is the standard deviation of the residual error on the effect scale.
as §4
The fractional inhibition for each component agent and combination point in the matrix is calculated relative to the median of all vehicle-treated control wells.

SU-DHL-10-epst = test: as above; details: combination with Compound 1, 72 h
RL = test: as above; details: combination with Compound 1, 72 h
Protocol: as §1, §6, §2, §3, §4, §5
(§7) Loewe Volume (Loewe Vol) is used to assess the overall magnitude of the combination interaction in excess of the Loewe additivity model. Loewe Volume is particularly useful when distinguishing synergistic increases in a phenotypic activity (positive Loewe Volume) versus synergistic antagonisms (negative Loewe Volume). […] This model defines additivity as a non-synergistic combination interaction where the combination dose matrix surface should be indistinguishable from either drug crossed with itself.

KARPAS-422 = test: as above; details: combination with Compound 1, 72 h
Protocol: as §1, §6, §2, §3, §4, §5, §7

WSU-NHL = test: as above; details: combination with Compound 1, 72 h
KARPAS-299 = test: as above; details: combination with Compound 1
GRANTA-519 = test: as above; details: combination with Compound 1
Jeko-1 = test: as above; details: combination with Compound 1
Protocol: as §1, §6, §2, §3, §4, §5, §7

Mino = test: as above; details: combination with Compound 1
NCI-H929 = test: as above; details: combination with Compound 1
[1] = as above; details: combination with Compound 1; OPM-2
OMP-2 = test: as above; details: combination with Compound 1; OPM-2
RPMI-8226 = test: as above; details: combination with Compound 1

For `CC(C)C[C@H](NC(=O)[C@H](Cc1ccccc1)NC(=O)c1cnccn1)B(O)O` [bortezomib, [(1R)-3-methyl-1-({(2S)-3-phenyl-2-[(pyrazin-2-ylcarbonyl)amino]propanoyl}amino)butyl]boronic acid], the CI50 growth inhibition (HH) was “U (U=0.7 to <1)”, the CI50 inhibition (HH) was “U (U=0.7 to <1)” and the CI50 growth inhibition (HBL-1) was “U (U=0.7 to <1)”. The CI50 inhibition (HBL-1) was “U (U=0.7 to <1)”, the CI50 growth inhibition (OCI-Ly3) was “U (U=0.7 to <1)” and the CI50 inhibition (OCI-Ly3) was “W (W=≥1)”. For the same compound, the CI50 growth inhibition (U-2932) was “U (U=0.7 to <1)”, the CI50 inhibition (U-2932) was “W (W=≥1)” and the CI50 growth inhibition (TMD8) was “U (U=0.7 to <1)”. For the same compound, the CI50 inhibition (TMD8) was “U (U=0.7 to <1)”, the CI50 growth inhibition (OCI-Ly7) was “U (U=0.7 to <1)” and the CI50 inhibition (OCI-Ly7) was “U (U=0.7 to <1)”. The CI50 growth inhibition (SU-DHL-4-epst) was “U (U=0.7 to <1)”, the CI50 inhibition (SU-DHL-4-epst) was “T (T=0.5 to <0.7)” and the CI50 growth inhibition (DOHH-2) was “U (U=0.7 to <1)”. The CI50 inhibition (DOHH-2) was “U (U=0.7 to <1)”, the CI50 growth inhibition (Farage) was “U (U=0.7 to <1)” and the CI50 inhibition (Farage) was “U (U=0.7 to <1)”. For the same compound, the CI50 growth inhibition (SU-DHL-10-epst) was “U (U=0.7 to <1)”, the CI50 inhibition (SU-DHL-10-epst) was “U (U=0.7 to <1)” and the CI50 growth inhibition (RL) was “U (U=0.7 to <1)”. The CI50 inhibition (RL) was “W (W=≥1)”, the CI50 growth inhibition (KARPAS-422) was “W (W=≥1)” and the CI50 inhibition (KARPAS-422) was “W (W=≥1)”. For the same compound, the CI50 growth inhibition (WSU-NHL) was “U (U=0.7 to <1)”, the CI50 inhibition (WSU-NHL) was “U (U=0.7 to <1)” and the CI50 growth inhibition (KARPAS-299) was “U (U=0.7 to <1)”. The CI50 inhibition (KARPAS-299) was “U (U=0.7 to <1)”, the CI50 growth inhibition (GRANTA-519) was “T (T=0.5 to <0.7)” and the CI50 inhibition (GRANTA-519) was “U (U=0.7 to <1)”. For the same compound, the CI50 growth inhibition (Jeko-1) was “U (U=0.7 to <1)”, the CI50 inhibition (Jeko-1) was “U (U=0.7 to <1)” and the CI50 growth inhibition (Mino) was “U (U=0.7 to <1)”. The CI50 inhibition (Mino) was “U (U=0.7 to <1)”, the CI50 growth inhibition (NCI-H929) was “U (U=0.7 to <1)” and the CI50 inhibition (NCI-H929) was “W (W=≥1)”. For the same compound, the CI50 growth inhibition [1] was “W (W=≥1)”, the CI50 inhibition (OMP-2) was “W (W=≥1)” and the CI50 growth inhibition (RPMI-8226) was “U (U=0.7 to <1)”. The CI50 inhibition (RPMI-8226) was “U (U=0.7 to <1)”.
For `Nc1cccc2c1CN(C1CCC(=O)NC1=O)C2=O` (stereo not shown) [lenalidomide, 3-(4-Amino-1-oxo 1,3-dihydro-2H-isoindol-2-yl)piperidine-2,6-dione], the CI50 growth inhibition (HH) was “W (W=≥1)”, the CI50 inhibition (HH) was “T (T=0.5 to <0.7)” and the “Synergy Score growth inhibition” value (HH) was “A2 (A2=1 to <3)”. The “Synergy Score inhibition” value (HH) was “A1 (A1=0.0001 to <1)”, the CI50 growth inhibition (HBL-1) was “W (W=≥1)” and the “Synergy Score growth inhibition” value (HBL-1) was “A1 (A1=0.0001 to <1)”. The “Synergy Score inhibition” value (HBL-1) was “A1 (A1=0.0001 to <1)”, the CI50 growth inhibition (OCI-Ly3) was “W (W=≥1)” and the “Synergy Score growth inhibition” value (OCI-Ly3) was “A1 (A1=0.0001 to <1)”. For the same compound, the “Synergy Score inhibition” value (OCI-Ly3) was “A1 (A1=0.0001 to <1)”, the CI50 growth inhibition (U-2932) was “U (U=0.7 to <1)” and the “Synergy Score growth inhibition” value (U-2932) was “A1 (A1=0.0001 to <1)”. For the same compound, the “Synergy Score inhibition” value (U-2932) was “A1 (A1=0.0001 to <1)”, the CI50 growth inhibition (TMD8) was “S (S=0.01 to <0.5)” and the CI50 inhibition (TMD8) was “S (S=0.01 to <0.5)”. For the same compound, the “Synergy Score growth inhibition” value (TMD8) was “A3 (A3=>3)”, the “Synergy Score inhibition” value (TMD8) was “A3 (A3=>3)” and the “Synergy Score growth inhibition” value (OCI-Ly7) was “A1 (A1=0.0001 to <1)”. The “Synergy Score inhibition” value (OCI-Ly7) was “A1 (A1=0.0001 to <1)”, the CI50 growth inhibition (SU-DHL-4-epst) was “W (W=≥1)” and the CI50 inhibition (SU-DHL-4-epst) was “T (T=0.5 to <0.7)”. The “Synergy Score growth inhibition” value (SU-DHL-4-epst) was “A2 (A2=1 to <3)”, the “Synergy Score inhibition” value (SU-DHL-4-epst) was “A1 (A1=0.0001 to <1)” and the CI50 growth inhibition (DOHH-2) was “S (S=0.01 to <0.5)”. The CI50 inhibition (DOHH-2) was “S (S=0.01 to <0.5)”, the “Synergy Score growth inhibition” value (DOHH-2) was “A3 (A3=>3)” and the “Synergy Score inhibition” value (DOHH-2) was “A2 (A2=1 to <3)”. The CI50 growth inhibition (Farage) was “W (W=≥1)”, the CI50 inhibition (Farage) was “W (W=≥1)” and the “Synergy Score growth inhibition” value (Farage) was “A2 (A2=1 to <3)”. For the same compound, the “Synergy Score inhibition” value (Farage) was “A1 (A1=0.0001 to <1)”, the CI50 growth inhibition (SU-DHL-10-epst) was “T (T=0.5 to <0.7)” and the CI50 inhibition (SU-DHL-10-epst) was “T (T=0.5 to <0.7)”. The “Synergy Score growth inhibition” value (SU-DHL-10-epst) was “A2 (A2=1 to <3)”, the “Synergy Score inhibition” value (SU-DHL-10-epst) was “A2 (A2=1 to <3)” and the “Synergy Score growth inhibition” value (RL) was “A1 (A1=0.0001 to <1)”. For the same compound, the “Synergy Score inhibition” value (RL) was “A1 (A1=0.0001 to <1)”, the CI50 growth inhibition (KARPAS-422) was “S (S=0.01 to <0.5)” and the CI50 inhibition (KARPAS-422) was “S (S=0.01 to <0.5)”. The “Synergy Score growth inhibition” value (KARPAS-422) was “A2 (A2=1 to <3)”, the “Synergy Score inhibition” value (KARPAS-422) was “A2 (A2=1 to <3)” and the CI50 growth inhibition (WSU-NHL) was “T (T=0.5 to <0.7)”. For the same compound, the CI50 inhibition (WSU-NHL) was “S (S=0.01 to <0.5)”, the “Synergy Score growth inhibition” value (WSU-NHL) was “A3 (A3=>3)” and the “Synergy Score inhibition” value (WSU-NHL) was “A2 (A2=1 to <3)”. The “Synergy Score growth inhibition” value (KARPAS-299) was “A1 (A1=0.0001 to <1)”, the “Synergy Score inhibition” value (KARPAS-299) was “A1 (A1=0.0001 to <1)” and the “Synergy Score growth inhibition” value (GRANTA-519) was “A1 (A1=0.0001 to <1)”. The “Synergy Score inhibition” value (GRANTA-519) was “A1 (A1=0.0001 to <1)”, the CI50 growth inhibition (Jeko-1) was “S (S=0.01 to <0.5)” and the CI50 inhibition (Jeko-1) was “T (T=0.5 to <0.7)”. For the same compound, the “Synergy Score growth inhibition” value (Jeko-1) was “A2 (A2=1 to <3)”, the “Synergy Score inhibition” value (Jeko-1) was “A2 (A2=1 to <3)” and the CI50 growth inhibition (Mino) was “T (T=0.5 to <0.7)”. The CI50 inhibition (Mino) was “W (W=≥1)”, the “Synergy Score growth inhibition” value (Mino) was “A2 (A2=1 to <3)” and the “Synergy Score inhibition” value (Mino) was “A1 (A1=0.0001 to <1)”. For the same compound, the CI50 growth inhibition (NCI-H929) was “T (T=0.5 to <0.7)”, the CI50 inhibition (NCI-H929) was “S (S=0.01 to <0.5)” and the “Synergy Score growth inhibition” value (NCI-H929) was “A3 (A3=>3)”. For the same compound, the “Synergy Score inhibition” value (NCI-H929) was “A3 (A3=>3)”, the CI50 growth inhibition [1] was “S (S=0.01 to <0.5)” and the “Synergy Score growth inhibition” value (OMP-2) was “A2 (A2=1 to <3)”. For the same compound, the “Synergy Score inhibition” value (OMP-2) was “A1 (A1=0.0001 to <1)”, the “Synergy Score growth inhibition” value (RPMI-8226) was “A1 (A1=0.0001 to <1)” and the “Synergy Score inhibition” value (RPMI-8226) was “A1 (A1=0.0001 to <1)”.
